According to paper PMC10587169, “Tuning aminopolycarboxylate chelators for efficient complexation of trivalent actinides” (Scientific Reports, 2023):
“Also recorded” adds a separate entry of the source.

Experiments:
[1] = Competitive complexation liquid-liquid extraction with HDEHP; format: binding; conditions: competitive solvent extractions, T = 20 ± 1 °C; for logβ101 (ML), Am3+ / logβ101 (ML), Eu3+ / logβ111 (MHL), Am3+ / logβ111 (MHL), Eu3+: I = 2.00 M sodium perchlorate; for logβ101 (ML), Am3+ / logβ101 (ML), Eu3+ / logβ111 (MHL), Am3+ / logβ111 (MHL), Eu3+ / logK111, Am3+ / logK111, Eu3+: ±3σ; for logβ101 (ML), Cm3+: p[H+] variation not monitored
Description: (§1) Stability constants for the coordination of Eu^3+, Am^3+, Cm^3+, and Cf^3+ were also achieved by monitoring the suppression of liquid–liquid partitioning of the radiotracer due to the increasing presence of an aqueous complexant. Aqueous solutions were prepared containing sub-millimolar amounts of ligand while maintaining p[H^+] at 1.7, 1.8, 1.9, 2.0, and 2.1. Ionic strength was maintained at 2.00 M using sodium perchlorate. Aqueous complexation was balanced with the appropriate choice of HDEHP concentration in octane to allow accurate quantification of metal distribution. Non-aqueous phases were pre-equilibrated three times with 2.00 M NaClO4 at the corresponding p[H^+]. Preliminary time-dependent studies indicated the phase transfer equilibrium was attained for all measurements with H4octapa and H4pypa-peg (Figures S2 and S3 in the SI). For the mixtures traced with radioisotopes, the activity was measured using gamma spectroscopy (ORTEC GEM50P4 coaxial HPGe detector, DSPEC gamma spectrometer) for ^154Eu (123.07 keV), ^243Am (74.66 keV), and ^249Cf (388.17 keV) and liquid scintillation counting (Perkin Elmer Tri-Carb 3180 TR/SL) for ^248Cm. The ratio of radioisotope activity in the organic and aqueous phases defined the liquid–liquid distribution.
(§2) Liquid–liquid partitioning of trivalent f-elements was monitored in presence of H4octapa and H4pypa-peg using a strong liquid cation exchanger, bis–(2-ethylhexyl)phosphoric acid, HDEHP. This competitive solvent extraction methodology was used to determine the conditional stability constants for complexation of Eu^3+, Am^3+, Cm^3+, and Cf^3+ with H4octapa and H4pypa-peg. The metals, present at radiotracer concentrations ([…]), distributed between an organic phase containing HDEHP in n-octane and an aqueous phase containing the complexant at varying concentrations and aqueous acidity. The interpretation of the competitive complexation liquid–liquid distribution data (SI Tables S3 through S5 for H4octapa and S6 through S8 for H4pypa-peg) considered two complex formation equilibria as described by Eqs. (4) and (5). All collected distribution data indicated the average ligand-to-metal stoichiometry of 1.00 ± 0.04 for H4octapa and 1.00 ± 0.03 for H4pypa-peg (see SI Figures S10A and S11A). The partitioning of a trivalent metal ion as facilitated by a dimerized HDEHP cation exchanger can be expressed by Eq. (6) as quantified by the extraction constant, Kex (subscript org refers to organic-soluble species).6 M^3++3HDEHP2,org⇆MHDEHP23,org+3H^+Kex=MHDEHP23,orgH^+^3/M^3+HDEHP2,org^3
Substitution of equilibrium and extraction constants Eqs. (3)–(5) into Eq. (6) yields Eq. (8).8 DM=KexHDEHP2,org^3H^+^3/1+β101L^4-+β111L^4-H^+
At constant HDEHP concentration and p[H^+], when the distribution of the metal ion in absence of ligand is labelled as D^0, the liquid–liquid partitioning of the metal will adhere to Eq. (9),9 D^0/DM-1=β^appL^4- where β^app is the apparent stability constant as represented by β ^app = β101 + β111[H^+].
The Figs. 7A for H4octapa and Fig. 7C for H4pypa-peg show representative Eu^3+, Am^3+, and Cf^3+ sets of dependencies collected at constant aqueous acidities to determine β^app constants from the slopes of the error-weighted least-squares regression analyses. Equivalent dependencies were also collected at different p[H^+] conditions to study variation of β^app trends with p[H^+] as presented in Figs. 7B,D for H4octapa and H4pypa-peg, respectively. The distribution plots for Eu^3+, Am^3+, and Cf^3+ for H4pypa-peg clearly show variation with the changing aqueous acidity, which yielded good estimates for the conditional stability constants for the formation of ML^− and MHL(aq) (Table 5). The collected trends for Cf^3+ in the presence of H4octapa vary to a lesser extent, enabling the determination of β101 only. The p[H^+] variation was not monitored for the coordination of ^248Cm^3+ with both APC ligands due to limited availability of this radioisotope. […]

[2] = as above; format: binding; conditions: competitive solvent extractions, T = 20 ± 1 °C, ±3σ
Description: as §1, §2
The stoichiometry for the extraction of trivalent metal ion by HDEHP was verified at 2.85 ± 0.03 by slope analysis study using ^249Cf^3+ as representative ion for H4octapa (SI Figure S10B) and 2.78 ± 0.13 for H4pypa-peg (SI Figure S11B). […]

[3] = Solubility in aqueous electrolyte media (observation); format: physicochemical
[4] = Spectrophotometric titration; format: binding; conditions: I = 2.0 M (Na+/H+)ClO4 at 20.0 °C, not marked potentiometry (spectrophotometric titration)

| Structure (SMILES) | logβ101 (ML), Am3+ [1] | logβ101 (ML), Eu3+ [1] | logβ111 (MHL), Am3+ [1] | logβ111 (MHL), Eu3+ [1] | logβ101 (ML), Cm3+ [1] | logK111, Am3+ [1] | logK111, Eu3+ [1] | logβ101 (ML), Cf3+ ([2]; I = 2.00 M sodium perchlorate) | logβ111 (MHL), Cf3+ ([2]; I = 2.00 M sodium perchlorate) | logK111, Cf3+ [2] | aqueous solubility compared to unfunctionalized H4pypa ([3]; moderately acidic aqueous electrolyte mixtures) | logβ121 (MH2L), Nd3+ [4] | solubility in high ionic strength perchlorate media ([3]; aqueous sodium perchlorate electrolyte medium, 2 M (Na+/H+)ClO4) |
| --- | --- | --- | --- | --- | --- | --- | --- | --- | --- | --- | --- | --- | --- |
| O=C(O)CN(Cc1cc(-c2cn(CCOCCOCCO)nn2)cc(CN(CC(=O)O)Cc2cccc(C(=O)O)n2)n1)Cc1cccc(C(=O)O)n1 [H4pypa-peg, 6,6'-((((4-(1-(2-(2-(2-hydroxyethoxy)ethoxy)ethyl)-1H-1,2,3-triazol-4-yl)pyridine-2,6-diyl)bis–(methylene))bis–((carboxymethyl)azanediyl))bis–(methylene)) dipicolinic acid] | 19.6 (1)^^ | 18.7 (2) | 21.8 (1)^^ | 20.6 (4) | 19.8 | 2.2 (1)^^ | 1.9 (4) | 21.0 (4)^^ | 23.2 (2)^^ | 2.2 (1)^^ | significantly improved aqueous solubility | – | – |
| O=C(O)CN(CCN(CCN(CC(=O)O)CC(=O)O)CC(=O)O)CCN(CC(=O)O)CC(=O)O [H6ttha, triethylenetetraamine-N,N,N',N'',N''',N'''-hexaacetic acid] | – | – | – | – | – | – | – | – | – | – | – | 27.7(1) | – |
| O=C(O)CN(CCN(CC(=O)O)Cc1cccc(C(=O)O)n1)Cc1cccc(C(=O)O)n1 [H4octapa, 6,6′-((ethane-1,2-diylbis–((carboxymethyl)azanediyl))bis–(methylene))dipicolinic acid] | 19.3 (6) | 18.59 (2) | – 21.8 (2)^^ | 20.45 (2) | 19.4^^ | – 2.5 (6)^^ | 1.86 (2) | 20.6 (2)^^ | – | – | – | – | limited; also recorded: Low solubility |
